Our source for the Activity and Drug metabolism values is ChEMBL document CHEMBL4007476, “Chemical synthesis, redox transformation, and identification of sonnerphenolic C, an antioxidant in Acer nikoense” (Bioorg Med Chem Lett, 2017).

Data set [1] in a line: Antioxidant activity assessed as DPPH radical scavenged per mole of compound after 20 mins. The data set is classed as functional. Background: The DPPH test is a chemical assay of radical scavenging.
Data set [2] concerns the target T1, Tyrosinase (Homo sapiens, UniProt P14679).
T1 sequence (P14679 whole entry): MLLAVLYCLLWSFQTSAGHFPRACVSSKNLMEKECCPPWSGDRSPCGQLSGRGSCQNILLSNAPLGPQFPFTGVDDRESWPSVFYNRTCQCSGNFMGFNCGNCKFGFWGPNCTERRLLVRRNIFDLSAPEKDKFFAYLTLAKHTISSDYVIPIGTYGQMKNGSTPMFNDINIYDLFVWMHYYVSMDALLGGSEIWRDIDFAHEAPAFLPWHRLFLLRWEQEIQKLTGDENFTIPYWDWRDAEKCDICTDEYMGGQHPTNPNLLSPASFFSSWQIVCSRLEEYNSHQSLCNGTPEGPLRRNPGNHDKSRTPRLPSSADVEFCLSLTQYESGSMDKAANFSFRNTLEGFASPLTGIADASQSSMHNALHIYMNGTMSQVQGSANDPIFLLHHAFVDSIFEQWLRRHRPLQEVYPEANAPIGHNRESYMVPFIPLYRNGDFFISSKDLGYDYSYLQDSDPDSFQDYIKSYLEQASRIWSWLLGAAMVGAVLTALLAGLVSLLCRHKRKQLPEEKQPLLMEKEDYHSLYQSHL
Put plainly: Drug level treated with 10 mM epirhododendrin assessed as tyrosinase (unknown origin)-mediated redox transformation in presence of vitamin C by HPLC analysis. The data set is classed as ADME.

Data set [3] deals with T1, Tyrosinase. Put plainly: Drug metabolism assessed as tyrosinase (unknown origin)-mediated redox transformation by measuring sonnerphenolic C formation at 10 mM in presence of vitamin C by HPLC analysis. It is filed as ADME. The conditions noted are these: 10000 µM.

In the case of VITAMIN E, the Activity in data set [1] was determined as 1.86 mol.

For `C[C@@H](CCc1ccc(O)c(O)c1)O[C@@H]1O[C@H](CO)[C@@H](O)[C@H](O)[C@H]1O`, in data set [1], the Activity came to 2.23 mol. Besides, the Drug metabolism entry at Tyrosinase [2] is given as “Metabolite_Detected”.

`C[C@@H](CCc1ccc(O)cc1)O[C@@H]1O[C@H](CO)[C@@H](O)[C@H](O)[C@H]1O`: the Activity in data set [1] is 0 mol. Moreover, the Drug metabolism entry at Tyrosinase [3] is given as “Metabolite_Detected”.
